In PubChem BioAssay AID1963958 (Molecular Pharmacology Branch, DTP, NCI, 2024):

Test system: MDA-MB-231 multicell spheroids, viability
Assay: Anticancer human tumor MDA-MB-231 cell line growth inhibition [PI3K];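 also: spheroids exposed to agents for seven days before reading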;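 as to viability, T/C: percent of vehicle control luminescence with DMSO treated spheroids as 100%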
Details: for IC50: curve of first compound; for viability, T/C: stronger effect = lower value; active = viability on the fitted dose curve at most 10% of control; inactive = the rest
Outline: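 Stroma-containing spheroids: tumor line, pooled-donor HUVEC, hMSC. Treatments: targeted agents with PI3K inhibitors. Dosing: clinically relevant, half-log spacing, 10 microM ceiling without known Cmax. Read-out: cell viability.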

[1] = second compound 0.00316 µM, first compound 0.0316 µM
[2] = second compound 0.00316 µM, first compound 0.1 µM
[3] = second compound 0.00316 µM, first compound 0.316 µM
[4] = second compound 0.00316 µM, first compound 1 µM
[5] = second compound 0.00316 µM, first compound 3.16 µM
[6] = second compound 0.00316 µM, first compound 10 µM
[7] = second compound 0.01 µM, first compound 0.0316 µM
[8] = second compound 0.01 µM, first compound 0.1 µM
[9] = second compound 0.01 µM, first compound 0.316 µM
[10] = second compound 0.01 µM, first compound 1 µM
[11] = second compound 0.01 µM, first compound 3.16 µM
[12] = second compound 0.01 µM, first compound 10 µM
[13] = second compound 0.0316 µM, first compound 0.0316 µM
[14] = second compound 0.0316 µM, first compound 0.1 µM
[15] = second compound 0.0316 µM, first compound 0.316 µM
[16] = second compound 0.0316 µM, first compound 1 µM
[17] = second compound 0.0316 µM, first compound 3.16 µM
[18] = second compound 0.0316 µM, first compound 10 µM
[19] = second compound 0.1 µM, first compound 0.0316 µM
[20] = second compound 0.1 µM, first compound 0.1 µM
[21] = second compound 0.1 µM, first compound 0.316 µM
[22] = second compound 0.1 µM, first compound 1 µM
[23] = second compound 0.1 µM, first compound 3.16 µM
[24] = second compound 0.1 µM, first compound 10 µM
[25] = second compound 0.316 µM, first compound 0.0316 µM
[26] = second compound 0.316 µM, first compound 0.1 µM
[27] = second compound 0.316 µM, first compound 0.316 µM
[28] = second compound 0.316 µM, first compound 1 µM
[29] = second compound 0.316 µM, first compound 3.16 µM
[30] = second compound 0.316 µM, first compound 10 µM
[31] = second compound 1 µM, first compound 0.0316 µM
[32] = second compound 1 µM, first compound 0.1 µM
[33] = second compound 1 µM, first compound 0.316 µM
[34] = second compound 1 µM, first compound 1 µM
[35] = second compound 1 µM, first compound 3.16 µM
[36] = second compound 1 µM, first compound 10 µM

C#Cc1c(F)ccc2cc(O)cc(-c3ncc4c(N5CC6CCC(C5)N6)nc(OCC56CCCN5CC(F)C6)nc4c3F)c12 (stereo unspecified) + CC(Nc1ccc2c(c1)OCCn1cc(N3C(=O)OCC3C(F)F)nc1-2)C(N)=O
8.37 µM: IC50 (second compound 0.01 µM)
4.68 µM: IC50 (second compound 0.0316 µM)
1.54 µM: IC50 (second compound 0.316 µM)
inactive: viability, T/C [1] 103% | viability, T/C [2] 99% | viability, T/C [3] 96.1% | viability, T/C [4] 86.7% | viability, T/C [5] 69.8% | viability, T/C [6] 48.6% | viability, T/C [7] 94% | viability, T/C [8] 94.8% | viability, T/C [9] 87.6% | viability, T/C [10] 78.3% | viability, T/C [11] 63.9% | viability, T/C [12] 47.4% | viability, T/C [13] 74.2% | viability, T/C [14] 83.1% | viability, T/C [15] 74.4% | viability, T/C [16] 61.4% | viability, T/C [17] 56.7% | viability, T/C [18] 41.8% | viability, T/C [19] 70.3% | viability, T/C [20] 65.3% | viability, T/C [21] 64.5% | viability, T/C [22] 56.8% | viability, T/C [23] 53.7% | viability, T/C [24] 35.5% | viability, T/C [25] 67.6% | viability, T/C [26] 67.1% | viability, T/C [27] 58.8% | viability, T/C [28] 54.2% | viability, T/C [29] 44% | viability, T/C [30] 33.4% | viability, T/C [31] 60.7% | viability, T/C [32] 54.4% | viability, T/C [33] 55.4% | viability, T/C [34] 51.4% | viability, T/C [35] 41.5% | viability, T/C [36] 28%
9.28 µM: IC50 (second compound 0.00316 µM)
1.06 µM: IC50 (second compound 1 µM)
3.36 µM: IC50 (second compound 0.1 µM)

C=CC(=O)N1CCN(c2nc(=O)n(-c3c(C)ccnc3C(C)C)c3nc(-c4c(O)cccc4F)c(F)cc23)C(C)C1 (stereo unspecified) + CC(Nc1ccc2c(c1)OCCn1cc(N3C(=O)OCC3C(F)F)nc1-2)C(N)=O
inactive: viability, T/C [1] 97.8% | viability, T/C [2] 113% | viability, T/C [3] 117% | viability, T/C [4] 124% | viability, T/C [5] 126% | viability, T/C [6] 111% | viability, T/C [7] 97.5% | viability, T/C [8] 99.1% | viability, T/C [9] 99.3% | viability, T/C [10] 119% | viability, T/C [11] 122% | viability, T/C [12] 106% | viability, T/C [13] 80.3% | viability, T/C [14] 86.1% | viability, T/C [15] 88.3% | viability, T/C [16] 97.8% | viability, T/C [17] 99.2% | viability, T/C [18] 82.1% | viability, T/C [19] 69.8% | viability, T/C [20] 71.2% | viability, T/C [21] 81.6% | viability, T/C [22] 73% | viability, T/C [23] 68.5% | viability, T/C [24] 59.3% | viability, T/C [25] 68.7% | viability, T/C [26] 64.6% | viability, T/C [27] 67.8% | viability, T/C [28] 68.8% | viability, T/C [29] 62.1% | viability, T/C [30] 48% | viability, T/C [31] 59.2% | viability, T/C [32] 57.7% | viability, T/C [33] 62.1% | viability, T/C [34] 60.6% | viability, T/C [35] 58.1% | viability, T/C [36] 40.3%
> 10 µM: IC50 (second compound 0.00316 µM) | IC50 (second compound 0.01 µM) | IC50 (second compound 0.0316 µM) | IC50 (second compound 0.1 µM) | IC50 (second compound 0.316 µM)
8.26 µM: IC50 (second compound 1 µM)

CC(Cn1ccc(-c2ccc(C#N)c(Cl)c2)n1)NC(=O)c1cc(C(C)O)[nH]n1 (stereo unspecified) + CC(Nc1ccc2c(c1)OCCn1cc(N3C(=O)OCC3C(F)F)nc1-2)C(N)=O
inactive: viability, T/C [1] 102% | viability, T/C [2] 95.6% | viability, T/C [3] 104% | viability, T/C [4] 95% | viability, T/C [5] 96.5% | viability, T/C [6] 88.1% | viability, T/C [7] 96% | viability, T/C [8] 97.5% | viability, T/C [9] 91.8% | viability, T/C [10] 94.6% | viability, T/C [11] 84.4% | viability, T/C [12] 77% | viability, T/C [13] 83.2% | viability, T/C [14] 81.7% | viability, T/C [15] 82.4% | viability, T/C [16] 77% | viability, T/C [17] 74.3% | viability, T/C [18] 64% | viability, T/C [19] 80.1% | viability, T/C [20] 69.6% | viability, T/C [21] 72% | viability, T/C [22] 69.9% | viability, T/C [23] 64.8% | viability, T/C [24] 50.3% | viability, T/C [25] 63.5% | viability, T/C [26] 63.3% | viability, T/C [27] 65.1% | viability, T/C [28] 61.2% | viability, T/C [29] 60.8% | viability, T/C [30] 53.6% | viability, T/C [31] 66% | viability, T/C [32] 56.3% | viability, T/C [33] 64.5% | viability, T/C [34] 60.2% | viability, T/C [35] 56.1% | viability, T/C [36] 48.8%
> 10 µM: IC50 (second compound 0.00316 µM) | IC50 (second compound 0.01 µM) | IC50 (second compound 0.0316 µM) | IC50 (second compound 0.1 µM) | IC50 (second compound 0.316 µM) | IC50 (second compound 1 µM)
